In this assay the test system is Ribosomal RNA A-site. The experiment in a line: Binding affinity to rRNA-A site in human MDA-MB-231 cells assessed as inhibition of protein translation. Format: cell-based.

From ChEMBL document CHEMBL4330087, “Synthesis, antimicrobial activity, attenuation of aminoglycoside resistance in MRSA, and ribosomal A-site binding of pyrene-neomycin conjugates” (Eur J Med Chem, 2019) come the findings set out here.

In the case of `CC/C(=C(\c1ccccc1)c1ccc(OCCN(C)C)cc1)c1ccccc1` [TAMOXIFEN], the half-maximal inhibitory concentration (IC50) came out at 18.1 µM.

One may read the IC50 as the point on the concentration scale where inhibition reaches its midpoint.
